Compound | melting point [°C]
COC(=O)CCCc1nc2nncc-2c2nc(-c3ccc(Cl)cc3)[nH]n12 [Example 91, methyl 4-[2-(4-chlorophenyl)pyrazolo[4,3-e]-1,2,4-triazolo[1,5-c]pyrimidin-5-yl]butyrate] | 194.5 to 196.5
COC(=O)CCCc1nc2nncc-2c2nc(-c3ccc(C)cc3)[nH]n12 [Example 92, methyl 4-[2-(4-methylphenyl)pyrazolo[4,3-e]-1,2,4-triazolo[1,5-c]pyrimidin-5-yl]butyrate] | 196.5 to 197
CCCCCCc1nc2ccccc2c2nc(-c3ccccc3)nn12 [Example 94, 5-n-hexyl-2-phenyl-1,2,4-triazolo[1,5-c]quinazoline] | 92 to 93
COC(=O)CCCc1nc2ccccc2c2nc(-c3ccccc3)nn12 [Example 96, methyl 4-(2-phenyl-1,2,4-triazolo[1,5-c]quinazolin-5-yl)butyrate] | 118.5 to 119.5
COC(=O)CCCc1nc2ccccc2c2nc(-c3ccc(F)cc3)nn12 [Example 98, methyl 4-[2-(4-fluorophenyl)-1,2,4-triazolo[1,5-c]quinazolin-5-yl]butyrate] | 167 to 168
CCCCCc1nc2ccccc2c2nc(-c3ccc(C)cc3)nn12 [Example 101, 2-(4-methylphenyl)-5-n-pentyl-1,2,4-triazolo[1,5-c]quinazoline] | 129.5 to 131
CCCCCc1nc2ccccc2c2nc(-c3ccc(Cl)cc3)nn12 [Example 103, 2-(4-chlorophenyl)-5-n-pentyl-1,2,4-triazolo[1,5-c]quinazoline] | 118 to 119.5
CCCCc1nc2c(cnn2CC)c2nc(-c3ccccc3)nn12 [Example 114, 5-n-butyl-7-ethyl-2-phenylpyrazolo[4,3-e]-1,2,4-triazolo[1,5-c]pyrimidine] | 146 to 147
CCCCc1nc2nn(CC)cc2c2nc(-c3ccccc3)nn12 [Example 115, 5-n-butyl-8-ethyl-2-phenylpyrazolo[4,3-e]-1,2,4-triazolo[1,5-c]pyrimidine] | 122.5 to 123
CCCCc1nc2nn(Cc3ccccc3)cc2c2nc(-c3ccccc3)nn12 [Example 117, 8-benzyl-5-n-butyl-2-phenylpyrazolo[4,3-e]-1,2,4-triazolo[1,5-c]pyrimidine] | 159 to 160
CCCCc1nc2nn(C)cc2c2nc(-c3ccc(C)cc3)nn12 [Example 121, 5-n-butyl-8-methyl-2-(4-methylphenyl)pyrazolo[4,3-e]-1,2,4-triazolo[1,5-c]pyrimidine] | 180 to 181
CCCCc1nc2nn(CCC)cc2c2nc(-c3ccc(C)cc3)nn12 [Example 123, 5-n-butyl-2-(4-methylphenyl)-8-n-propylpyrazolo[4,3-e]-1,2,4-triazolo[1,5-c]pyrimidine] | 101.5 to 103.5

Next, values leading:

melting point [°C] | Compound
187.5 to 188.5 | COC(=O)CCCc1nc2nncc-2c2nc(-c3ccc(OC)cc3)[nH]n12 [Example 90, methyl 4-[2-(4-methoxyphenyl)pyrazolo[4,3-e]-1,2,4-triazolo[1,5-c]pyrimidin-5-yl]butyrate]
118 to 118.5 | CCCCCc1nc2ccccc2c2nc(-c3ccccc3)nn12 [Example 93, 5-n-pentyl-2-phenyl-1,2,4-triazolo[1,5-c]quinazoline]
133.5 to 134 | CCCCCc1nc2ccccc2c2nc(-c3ccc(F)cc3)nn12 [Example 95, 2-(4-fluorophenyl)-5-n-pentyl-1,2,4-triazolo[1,5-c]quinazoline]
125 to 126 | COC(=O)CCCc1nc2ccccc2c2nc(-c3ccc(Br)cc3)nn12 [Example 97, methyl 4-[2-(4-bromophenyl)-1,2,4-triazolo[1,5-c]quinazolin-5-yl]butyrate]
128 to 129 | COC(=O)CCCc1nc2ccccc2c2nc(-c3ccc(Cl)cc3)nn12 [Example 99, methyl 4-[2-(4-chlorophenyl)-1,2,4-triazolo[1,5-c]quinazolin-5-yl]butyrate]
120.5 to 121.5 | COC(=O)CCCc1nc2ccccc2c2nc(-c3ccc(C)cc3)nn12 [Example 100, methyl 4-[2-(4-methylphenyl)-1,2,4-triazolo[1,5-c]quinazolin-5-yl]butyrate]
133 to 134 | CCCCCc1nc2ccccc2c2nc(-c3ccc(Br)cc3)nn12 [Example 102, 2-(4-bromophenyl)-5-n-pentyl-1,2,4-triazolo[1,5-c]quinazoline]
145 to 146.5 | COC(=O)CCCc1nc2ccc(Cl)cc2c2nc(-c3ccc(Cl)cc3)nn12 [Example 104, methyl 4-[9-chloro-2-(4-chlorophenyl)-1,2,4-triazolo[1,5-c]quinazolin-5-yl]butyrate]
123 to 125 | CCCCCc1nc2ccccc2c2nc(-c3ccc(OC)cc3)nn12 [Example 105, 2-(4-methoxyphenyl)-5-n-pentyl-1,2,4-triazolo[1,5-c]quinazoline]
116 to 117 | CCCCCc1nc2ccccc2c2nc(-c3ccc(OCC)cc3)nn12 [Example 106, 2-(4-ethoxyphenyl)-5-n-pentyl-1,2,4-triazolo[1,5-c]quinazoline]
172 to 173 | CCCCc1nc2c(cnn2C)c2nc(-c3ccccc3)nn12 [Example 110, 5-n-butyl-7-methyl-2-phenylpyrazolo[4,3-e]-1,2,4-triazolo[1,5-c]pyrimidine]
184 to 185 | CCCCc1nc2nn(C)cc2c2nc(-c3ccccc3)nn12 [Example 111, 5-n-butyl-8-methyl-2-phenylpyrazolo[4,3-e]-1,2,4-triazolo[1,5-c]pyrimidine]
100.5 to 101.5 | CCCCc1nc2c(cnn2CCC)c2nc(-c3ccccc3)nn12 [Example 112, 5-n-butyl-2-phenyl-7-n-propylpyrazolo[4,3-e]-1,2,4-triazolo[1,5-c]pyrimidine]
107 to 108 | CCCCc1nc2nn(CCC)cc2c2nc(-c3ccccc3)nn12 [Example 113, 5-n-butyl-2-phenyl-8-n-propylpyrazolo[4,3-e]-1,2,4-triazolo[1,5-c]pyrimidine]
108 to 109 | CCCCc1nc2c(cnn2Cc2ccccc2)c2nc(-c3ccccc3)nn12 [Example 116, 7-benzyl-5-n-butyl-2-phenylpyrazolo[4,3-e]-1,2,4-triazolo[1,5-c]pyrimidine]
147.5 to 148.5 | CCCCc1nc2c(cnn2C)c2nc(-c3ccc(Cl)cc3)nn12 [Example 118, 2-(4-chlorophenyl)-5-n-butyl-7-methylpyrazolo[4,3-e]-1,2,4-triazolo[1,5-c]pyrimidine]
203.5 to 205 | CCCCc1nc2nn(C)cc2c2nc(-c3ccc(Cl)cc3)nn12 [Example 119, 2-(4-chlorophenyl)-5-n-butyl-8-methylpyrazolo[4,3-e]-1,2,4-triazolo[1,5-c]pyrimidine]
156 to 157 | CCCCc1nc2c(cnn2C)c2nc(-c3ccc(C)cc3)nn12 [Example 120, 5-n-butyl-7-methyl-2-(4-methylphenyl)pyrazolo[4,3-e]-1,2,4-triazolo[1,5-c]pyrimidine]
113 to 113.5 | CCCCc1nc2c(cnn2CCC)c2nc(-c3ccc(C)cc3)nn12 [Example 122, 5-n-butyl-2-(4-methylphenyl)-7-n-propylpyrazolo[4,3-e]-1,2,4-triazolo[1,5-c]pyrimidine]

— patent US20040142952A1, “Triazoloquinazoline and pyrazolotriazolopyrimidine derivatives, medicinal compositions, adenosine a3 receptor affinity agents, ocular tension lowering agents, preparations for preventing and treating glaucoma and method of lowering ocular tension” (priority 2001, published 2004)
